Data published in patent US20150148234A1, “HERBICIDE-RESISTANT SUNFLOWER PLANTS WITH MULTIPLE HERBICIDE RESISTANT ALLELES OF AHASL1 AND METHODS OF USE” (NIDERA S.A., priority 2013, published 2015).
Marks after values point to notes of the source that are not given here.

Columns and labels:
Assay in all cases: imazapyr whole plant greenhouse test (Example 2)
Assay type in all cases: in vivo
[1] = tested on: sunflower hybrid H4 (L1 × L4), A205V + A122T
Method: (§1) Seeds were sown in Petri dishes and, after germination, plantlets were transplanted to pots of 10 cm of diameter in a potting media consisting of equal parts of vermiculite, soil and sand. Plants were grown in a greenhouse under natural light conditions supplemented with 400 W sodium halide lamps to provide a 16 hr daylength. Day/night temperatures were 25 and 20 ° C., respectively. At the V2-V4 stage (Schneiter & Miller (1981) Crop Sci. 21:901-903) 10 plants of each genotype were randomly assigned to each treatment consisting of eight imazapyr doses (0, 40, 80, 160, 240, 320, 400 and 480 g ai/ha, corresponding to untreated, 0.5×, 1×, 2×, 3×, 4×, 5× and 6×, respectively), and a zero-time biomass determination. Experiment was arranged as a randomized block design with a full factorial (sunflower line×treatment) arrangement of treatments and 10 replications.
(§2) On the day of herbicide application ten plants of each genotype were cut at the cotyledonal node and dried at 60° C. for 48 hrs for zero-time dried weight determination.
(§3) The remaining plants were maintained for 14 days after imazapyr treatment (DAT) and their height, Phytotoxicity Index (PI) and above ground dry biomass were determined Height was determined as the distance between the cotyledonal node and the apex of each plant. Above ground biomass data from each line were converted to biomass accumulation after application by subtracting the appropriate average zero- time biomass from each sample. Dry biomass data were converted to percentages of the untreated control plants within each line to allow direct comparisons between groups.

[2] = tested on: sunflower genotypes A122T/A205V (mean of H3, H4); details: for Phytotoxicity Index (0-9) 14 days after treatment / biomass accumulation 14 days after treatment, % of untreated / plant height 14 days after treatment, % of untreated: A122T/A205V Mean; for height reduction: heterozygotes A122T/A205V, of the untreated controls; for reduction in biomass weight: heterozygous A122T/A205V
Method: as §1, §2, §3

sunflower line L1, A205V = tested on: sunflower line L1, A205V
Method: as §1, §2, §3

## CC(C)C1(C)N=C(c2ncccc2C(=O)O)NC1=O (centres unmarked) [imazapyr]
[1]; dose 3 (3x, 240 g ai/ha)
  plant height 14 days after treatment, % of untreated: 100.0%
[1]; dose 4 (4x, 320 g ai/ha)
  Phytotoxicity Index (0-9) 14 days after treatment: 0.0
  biomass accumulation 14 days after treatment, % of untreated: 85.0%
  plant height 14 days after treatment, % of untreated: 95.0%
[1]; dose 5 (5x, 400 g ai/ha)
  Phytotoxicity Index (0-9) 14 days after treatment: 0.2
  biomass accumulation 14 days after treatment, % of untreated: 78.7%
  plant height 14 days after treatment, % of untreated: 87.2%
[1]; dose 6 (6x, 480 g ai/ha)
  Phytotoxicity Index (0-9) 14 days after treatment: 0.0
  biomass accumulation 14 days after treatment, % of untreated: 71.8%
  plant height 14 days after treatment, % of untreated: 65.5%
[2]; dose 0.5 (0.5x, 40 g ai/ha)
  Phytotoxicity Index (0-9) 14 days after treatment: 0.5
  biomass accumulation 14 days after treatment, % of untreated: 99.6%
  plant height 14 days after treatment, % of untreated: 99.4%
[2]; dose 1 (1x, 80 g ai/ha)
  Phytotoxicity Index (0-9) 14 days after treatment: 0.5
  biomass accumulation 14 days after treatment, % of untreated: 98.9%
  plant height 14 days after treatment, % of untreated: 98.3%
[2]; dose 2 (2x, 160 g ai/ha)
  Phytotoxicity Index (0-9) 14 days after treatment: 0.5
  biomass accumulation 14 days after treatment, % of untreated: 93.2** %
  plant height 14 days after treatment, % of untreated: 98.3%
[2]; dose 3 (3x, 240 g ai/ha)
  Phytotoxicity Index (0-9) 14 days after treatment: 0.5
  biomass accumulation 14 days after treatment, % of untreated: 89.5** %
  plant height 14 days after treatment, % of untreated: 96.9%
[2]; dose 4 (4x, 320 g ai/ha)
  Phytotoxicity Index (0-9) 14 days after treatment: 0.5
  biomass accumulation 14 days after treatment, % of untreated: 86.4** %
  plant height 14 days after treatment, % of untreated: 93.5** %
[2]; dose 5 (5x, 400 g ai/ha)
  Phytotoxicity Index (0-9) 14 days after treatment: 0.6
  biomass accumulation 14 days after treatment, % of untreated: 75.4** %
  plant height 14 days after treatment, % of untreated: 76.3** %
[2]; dose 6 (6x, 480 g ai/ha)
  Phytotoxicity Index (0-9) 14 days after treatment: 1
  biomass accumulation 14 days after treatment, % of untreated: 67.5** %
  plant height 14 days after treatment, % of untreated: 61.8** %
[2]; 0.5x
  height reduction: 0.6%
  reduction in biomass weight: 0.3%
[2]; 6x
  height reduction: 38.2%
  reduction in biomass weight: 33%
Sunflower line L1, A205V; dose 0.5 (0.5x, 40 g ai/ha)
  Phytotoxicity Index (0-9) 14 days after treatment: 0
  biomass accumulation 14 days after treatment, % of untreated: 91.7%
  plant height 14 days after treatment, % of untreated: 100.0%
Sunflower line L1, A205V; dose 1 (1x, 80 g ai/ha)
  Phytotoxicity Index (0-9) 14 days after treatment: 0
  biomass accumulation 14 days after treatment, % of untreated: 81.7%
  plant height 14 days after treatment, % of untreated: 100.0%
Sunflower line L1, A205V; dose 2 (2x, 160 g ai/ha)
  Phytotoxicity Index (0-9) 14 days after treatment: 1.6
  biomass accumulation 14 days after treatment, % of untreated: 54.7%
  plant height 14 days after treatment, % of untreated: 78.9%
Sunflower line L1, A205V; dose 3 (3x, 240 g ai/ha)
  Phytotoxicity Index (0-9) 14 days after treatment: 5.1
  biomass accumulation 14 days after treatment, % of untreated: 35.7%
  plant height 14 days after treatment, % of untreated: 50.0%
Sunflower line L1, A205V; dose 4 (4x, 320 g ai/ha)
  Phytotoxicity Index (0-9) 14 days after treatment: 8.4
  biomass accumulation 14 days after treatment, % of untreated: 25.3%
  plant height 14 days after treatment, % of untreated: 38.1%
Sunflower line L1, A205V; dose 5 (5x, 400 g ai/ha)
  Phytotoxicity Index (0-9) 14 days after treatment: 8.9
  biomass accumulation 14 days after treatment, % of untreated: 19.8%
  plant height 14 days after treatment, % of untreated: 31.8%
Sunflower line L1, A205V; dose 6 (6x, 480 g ai/ha)
  Phytotoxicity Index (0-9) 14 days after treatment: 8.9
  biomass accumulation 14 days after treatment, % of untreated: 19.5%
  plant height 14 days after treatment, % of untreated: 34.7%
